Measured values: paper PMC10580381 (ACS Pharmacology & Translational Science, 2023)

Assays:
[1] = biological target: T1, recombinant human HDAC2 (Homo sapiens, UniProt Q92769); test: Biochemical HDAC activity assay, recombinant HDAC2; conditions: recombinant HDAC2, mean ± SD, three independent experiments
T1 construct: purchased Creative Biomart

[2] = tested on: NSCLC cell lines; test: cells; type: cell-based; conditions: Homo sapiens, read-out: effect on cancer cell viability
[3] = tested on: Bim (BCL2L11); test: Real-time PCR of Bim expression in H1975; type: cell-based, human; conditions: H1975, 24 h, flunarizine 2.5, 5, or 10 μM or SAHA 0.25, 0.5, or 1 μM; all concentrations tested
Protocol: (§1) Reverse transcription was performed using 1 μg of total RNA sample with the PrimeScript First Strand cDNA Synthesis Kit (TaKaRa Biomedical Technology) at 37 °C for 10 min. The cDNA was then amplified by real-time PCR to determine the relative expression of p27^Kip1 and BIM using the KAPA SYBR FAST qPCR kit (KapaBiosystems, Wilmington, Massachusetts) with a LightCycler 480 Instrument I instrument (Roche Applied Science, Indianapolis, Indiana). The house-keeping gene GAPDH was also measured for normalization. Specific primer sequences used in the PCR reactions are p27^Kip1, forward 5′-[…]-3′ and reverse 5′-[…]-3′; Bim, forward 5′-[…]-3′ and reverse 5′-[…]-3′; and GAPDH, forward 5′-[…]-3′ and reverse 5′-[…]-3′. The PCR temperature program was set at 95 °C for 5 min, followed by 35 cycles of 95 °C for 10 s and 60 °C for 10 s. The fluorescent signal was detected at the end of the PCR elongation step of every cycle to keep track of the amount of amplified DNA. ΔCt was calculated by subtracting the Ct of GAPDH from the Ct of Bim or p27^Kip1. Fold change in gene expression was analyzed by the 2^–ΔΔCt method.

[4] = tested on: p27^Kip1 (CDKN1B); test: Real-time PCR of p27^Kip1 expression in H1975; type: cell-based, human; conditions: H1975, 24 h, flunarizine 2.5, 5, or 10 μM or SAHA 0.25, 0.5, or 1 μM; all concentrations tested
Protocol: as §1

[5] = tested on: E-cadherin; test: Western blot of E-cadherin in H1975 cells; type: cell-based, human; conditions: concentration-dependent
[6] = tested on: H1975 cells; test: cells; conditions: Homo sapiens, NCI-H1975, read-out: cell viability (%)
[7] = tested on: H1650 cells; test: cells; conditions: Homo sapiens, NCI-H1650, read-out: cell viability (%)
[8] = in vivo; cited from earlier work
[9] = biological target: recombinant human HDAC1 (Homo sapiens, UniProt Q13547); test: biochemical
[10] = biological target: recombinant human HDAC3 (Homo sapiens, UniProt O15379); test: biochemical
[11] = biological target: T2, recombinant human HDAC8 (Homo sapiens, UniProt Q9BY41); test: biochemical
T2 sequence (Q9BY41 1-377): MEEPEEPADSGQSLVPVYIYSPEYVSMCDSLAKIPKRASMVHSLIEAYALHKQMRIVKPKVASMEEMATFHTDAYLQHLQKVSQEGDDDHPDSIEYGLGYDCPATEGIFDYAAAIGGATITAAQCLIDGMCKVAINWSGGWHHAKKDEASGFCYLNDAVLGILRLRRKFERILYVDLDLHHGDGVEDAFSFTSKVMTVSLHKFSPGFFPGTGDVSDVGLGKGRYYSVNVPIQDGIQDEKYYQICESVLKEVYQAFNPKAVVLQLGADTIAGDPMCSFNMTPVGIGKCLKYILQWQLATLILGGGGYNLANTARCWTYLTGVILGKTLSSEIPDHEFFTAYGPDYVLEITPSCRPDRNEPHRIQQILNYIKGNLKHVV

recombinant human HDAC3, sequence (O15379 whole entry): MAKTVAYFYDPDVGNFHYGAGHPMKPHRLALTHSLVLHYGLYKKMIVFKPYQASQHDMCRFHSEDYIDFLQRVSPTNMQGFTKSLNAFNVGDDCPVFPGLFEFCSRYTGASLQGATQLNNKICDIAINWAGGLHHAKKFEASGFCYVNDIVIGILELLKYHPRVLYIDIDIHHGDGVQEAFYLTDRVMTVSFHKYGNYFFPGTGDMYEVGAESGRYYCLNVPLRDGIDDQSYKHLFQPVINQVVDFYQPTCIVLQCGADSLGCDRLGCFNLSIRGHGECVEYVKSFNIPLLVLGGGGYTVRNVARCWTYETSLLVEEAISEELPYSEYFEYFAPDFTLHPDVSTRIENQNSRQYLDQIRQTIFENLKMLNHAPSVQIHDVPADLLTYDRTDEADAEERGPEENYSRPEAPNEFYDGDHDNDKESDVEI
recombinant human HDAC3, sequence (Q9Y618 395-489 partner limits assumed): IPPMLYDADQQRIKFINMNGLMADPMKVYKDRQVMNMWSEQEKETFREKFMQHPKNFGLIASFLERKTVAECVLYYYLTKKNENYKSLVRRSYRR
T1 sequence (Q92769 whole entry): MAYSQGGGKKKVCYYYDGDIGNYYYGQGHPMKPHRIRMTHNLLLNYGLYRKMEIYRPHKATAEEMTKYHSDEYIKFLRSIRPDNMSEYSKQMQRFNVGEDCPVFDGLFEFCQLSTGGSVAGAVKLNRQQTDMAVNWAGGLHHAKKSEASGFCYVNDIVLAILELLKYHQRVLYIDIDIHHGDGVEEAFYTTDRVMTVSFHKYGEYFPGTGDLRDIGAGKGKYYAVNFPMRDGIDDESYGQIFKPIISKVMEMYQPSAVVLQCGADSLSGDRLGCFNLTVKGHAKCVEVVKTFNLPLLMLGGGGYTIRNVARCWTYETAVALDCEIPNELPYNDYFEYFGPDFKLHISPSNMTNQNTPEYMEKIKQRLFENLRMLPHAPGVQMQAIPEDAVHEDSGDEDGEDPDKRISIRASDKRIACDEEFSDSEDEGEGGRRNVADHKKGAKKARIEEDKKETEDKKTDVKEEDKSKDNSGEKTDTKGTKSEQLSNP
recombinant human HDAC1, sequence (Q13547 whole entry): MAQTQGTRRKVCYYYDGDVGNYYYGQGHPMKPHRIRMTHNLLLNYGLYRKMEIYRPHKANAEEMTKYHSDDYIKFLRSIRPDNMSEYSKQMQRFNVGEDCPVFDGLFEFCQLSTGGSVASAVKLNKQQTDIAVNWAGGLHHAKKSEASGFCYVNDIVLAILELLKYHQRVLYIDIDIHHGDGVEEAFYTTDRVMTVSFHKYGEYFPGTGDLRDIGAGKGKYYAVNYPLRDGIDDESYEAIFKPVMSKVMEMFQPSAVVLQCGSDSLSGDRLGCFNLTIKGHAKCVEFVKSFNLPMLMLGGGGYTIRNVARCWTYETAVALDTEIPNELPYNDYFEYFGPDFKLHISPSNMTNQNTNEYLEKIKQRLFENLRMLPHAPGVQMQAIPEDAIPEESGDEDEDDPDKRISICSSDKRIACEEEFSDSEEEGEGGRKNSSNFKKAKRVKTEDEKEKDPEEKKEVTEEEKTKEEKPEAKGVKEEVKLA

IC50 [1]: 360 ± 26 nM | IC50 [9]: 285 ± 15 nM | IC50 [10]: 305 ± 31 nM | IC50 [11]: 5500 ± 450 nM
SMILES: Fc1ccc(C(c2ccc(F)cc2)N2CCN(C/C=C/c3ccccc3)CC2)cc1 [flunarizine]
viability at 20 µM [2]: ≤ 25% | Bim expression [3]: significantly increase | p27^Kip1 expression [4]: significantly increase | E-cadherin expression [5]: upregulate | viability at 2.5 µM [6]: 95 ± 8% | viability at 5 µM [6]: 94 ± 6% | viability at 10 µM [6]: 86 ± 7% | viability at 2.5 µM [7]: 93 ± 4% | viability at 5 µM [7]: 92 ± 5% | viability at 10 µM [7]: 87 ± 6% | elimination half-life [8]: around 18 days
